Assay results reported in patent US8592413B2, “Therapeutic substituted cyclopentanes” (Allergan, Inc., priority 2008, dated 2013).
pEC50, pKi: −log10 of the molar value.

Columns and labels:
[1] = target: T1, EP2 (Homo sapiens, UniProt P43116); assay: EP2 flipr; type: cell-based
Description: (§1) US 2007/0129552, incorporated by reference herein, describes the methods used to obtain the in vitro data in the table below.

[2] = target: T1, EP2; assay: EP2 cAMP; type: cell-based
Description: as §1

[3] = target: T1, EP2; assay: EP2 Ki (binding)
Description: as §1

[4] = target: T2, EP4 (Homo sapiens, UniProt P35408); assay: EP4 flipr; type: cell-based
T2 sequence (P35408 whole entry): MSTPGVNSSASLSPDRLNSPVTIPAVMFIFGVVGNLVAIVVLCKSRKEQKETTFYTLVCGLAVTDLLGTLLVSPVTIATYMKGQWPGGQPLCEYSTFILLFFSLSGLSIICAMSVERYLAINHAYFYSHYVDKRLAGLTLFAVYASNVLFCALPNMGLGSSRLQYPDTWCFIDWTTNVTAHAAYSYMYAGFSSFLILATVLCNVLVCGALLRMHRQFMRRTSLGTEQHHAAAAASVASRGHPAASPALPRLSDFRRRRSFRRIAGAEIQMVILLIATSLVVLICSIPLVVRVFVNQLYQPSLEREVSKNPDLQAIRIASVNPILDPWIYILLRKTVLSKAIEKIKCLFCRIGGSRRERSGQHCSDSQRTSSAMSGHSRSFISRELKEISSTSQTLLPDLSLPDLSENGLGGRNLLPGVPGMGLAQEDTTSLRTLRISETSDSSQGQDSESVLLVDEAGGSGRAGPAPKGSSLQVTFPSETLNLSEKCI
Description: as §1

[5] = target: T2, EP4; assay: EP4 KI (binding)
Description: as §1

[6] = target: hFP (Homo sapiens, UniProt P43088); assay: Other receptors: hFP EC50; type: cell-based
Chain of hFP (P43088 whole entry): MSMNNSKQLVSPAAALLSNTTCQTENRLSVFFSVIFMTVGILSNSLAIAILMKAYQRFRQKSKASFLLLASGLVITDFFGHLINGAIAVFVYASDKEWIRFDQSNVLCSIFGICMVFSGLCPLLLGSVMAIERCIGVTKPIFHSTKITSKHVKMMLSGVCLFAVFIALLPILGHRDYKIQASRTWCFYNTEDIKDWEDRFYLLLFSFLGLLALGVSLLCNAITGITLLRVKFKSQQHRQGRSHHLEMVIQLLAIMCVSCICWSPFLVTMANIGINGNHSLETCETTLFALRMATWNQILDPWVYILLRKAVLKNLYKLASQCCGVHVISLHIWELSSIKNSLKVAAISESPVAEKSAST
Description: as §1

[7] = target: T3, hEP1 (Homo sapiens, UniProt P34995); assay: Other receptors: hEP1 EC50; type: cell-based
T3 sequence (P34995 1-402): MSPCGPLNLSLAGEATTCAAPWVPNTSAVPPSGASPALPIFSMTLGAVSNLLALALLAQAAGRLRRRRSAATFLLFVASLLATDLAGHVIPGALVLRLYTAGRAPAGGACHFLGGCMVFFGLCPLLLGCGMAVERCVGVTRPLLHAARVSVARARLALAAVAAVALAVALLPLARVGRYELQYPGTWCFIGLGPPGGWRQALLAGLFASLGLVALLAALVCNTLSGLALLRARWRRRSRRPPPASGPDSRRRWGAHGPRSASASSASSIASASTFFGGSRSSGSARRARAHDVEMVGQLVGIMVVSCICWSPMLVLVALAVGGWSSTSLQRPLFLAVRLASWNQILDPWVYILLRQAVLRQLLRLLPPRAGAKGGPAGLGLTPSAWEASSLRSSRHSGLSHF
Description: as §1

[8] = target: T4, hEP3A (Homo sapiens, UniProt P43115); assay: Other receptors: hEP3A EC50; type: cell-based
T4 sequence (P43115 1-390): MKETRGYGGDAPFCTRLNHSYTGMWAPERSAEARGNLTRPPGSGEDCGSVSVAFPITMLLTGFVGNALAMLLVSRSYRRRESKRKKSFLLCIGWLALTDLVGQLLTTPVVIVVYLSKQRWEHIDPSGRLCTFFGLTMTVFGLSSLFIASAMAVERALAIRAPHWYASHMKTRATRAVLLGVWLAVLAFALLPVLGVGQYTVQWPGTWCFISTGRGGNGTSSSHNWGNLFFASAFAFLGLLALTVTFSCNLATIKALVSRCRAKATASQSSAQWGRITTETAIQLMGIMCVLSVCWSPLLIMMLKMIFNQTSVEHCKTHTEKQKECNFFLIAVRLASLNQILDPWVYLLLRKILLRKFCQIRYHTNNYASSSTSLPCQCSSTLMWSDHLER
Description: as §1

[9] = target: T5, hTP (Homo sapiens, UniProt P21731); assay: Other receptors: hTP EC50; type: cell-based
T5 sequence (P21731 1-343): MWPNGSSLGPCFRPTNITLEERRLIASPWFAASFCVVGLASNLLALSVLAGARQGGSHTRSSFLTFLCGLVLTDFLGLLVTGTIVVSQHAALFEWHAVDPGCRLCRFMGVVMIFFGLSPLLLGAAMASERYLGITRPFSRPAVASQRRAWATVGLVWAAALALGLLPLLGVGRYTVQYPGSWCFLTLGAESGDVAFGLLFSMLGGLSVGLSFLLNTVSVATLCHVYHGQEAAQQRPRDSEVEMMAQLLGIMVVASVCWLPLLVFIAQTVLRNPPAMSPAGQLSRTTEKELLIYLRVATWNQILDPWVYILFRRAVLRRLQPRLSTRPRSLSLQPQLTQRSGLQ
Description: as §1

[10] = target: hIP (Homo sapiens, UniProt P43119); assay: Other receptors: hIP EC50; type: cell-based
Chain of hIP (P43119 whole entry): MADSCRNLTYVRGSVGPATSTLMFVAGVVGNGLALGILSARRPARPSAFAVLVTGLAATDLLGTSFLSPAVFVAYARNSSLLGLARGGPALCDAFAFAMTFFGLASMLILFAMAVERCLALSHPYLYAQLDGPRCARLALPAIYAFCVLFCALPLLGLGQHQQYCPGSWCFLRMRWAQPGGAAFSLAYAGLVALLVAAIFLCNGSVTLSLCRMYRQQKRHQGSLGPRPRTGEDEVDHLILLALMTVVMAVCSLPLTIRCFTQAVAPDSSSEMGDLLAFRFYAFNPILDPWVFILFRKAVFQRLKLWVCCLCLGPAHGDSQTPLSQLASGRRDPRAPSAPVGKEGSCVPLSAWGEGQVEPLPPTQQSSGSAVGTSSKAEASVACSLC
Description: as §1

[11] = target: T6, hDP (Homo sapiens, UniProt Q13258); assay: Other receptors: hDP EC50; type: cell-based
T6 sequence (Q13258 1-359): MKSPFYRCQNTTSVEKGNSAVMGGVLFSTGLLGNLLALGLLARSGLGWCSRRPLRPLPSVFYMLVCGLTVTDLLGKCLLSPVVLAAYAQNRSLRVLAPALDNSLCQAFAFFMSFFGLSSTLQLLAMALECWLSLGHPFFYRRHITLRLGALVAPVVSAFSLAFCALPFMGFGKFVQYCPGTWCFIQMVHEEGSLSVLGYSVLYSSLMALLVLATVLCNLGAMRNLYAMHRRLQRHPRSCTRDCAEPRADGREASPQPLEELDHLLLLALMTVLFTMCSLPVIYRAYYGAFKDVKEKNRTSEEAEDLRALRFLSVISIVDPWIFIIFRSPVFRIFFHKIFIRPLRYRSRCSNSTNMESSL
Description: as §1

T1 sequence (P43116 whole entry): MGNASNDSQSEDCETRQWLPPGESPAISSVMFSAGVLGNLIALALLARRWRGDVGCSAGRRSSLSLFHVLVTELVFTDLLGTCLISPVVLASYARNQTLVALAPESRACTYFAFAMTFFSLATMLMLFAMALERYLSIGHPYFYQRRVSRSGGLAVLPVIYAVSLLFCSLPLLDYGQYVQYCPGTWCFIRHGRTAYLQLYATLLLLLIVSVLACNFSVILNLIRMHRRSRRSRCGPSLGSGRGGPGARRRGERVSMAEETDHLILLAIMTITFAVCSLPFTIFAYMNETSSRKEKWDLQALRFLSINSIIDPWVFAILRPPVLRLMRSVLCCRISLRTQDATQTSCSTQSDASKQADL

| pEC50 [1] | pEC50 [2] | pKi [3] | pEC50 [4] | pKi [5] | EC50 [6] [nM] | EC50 [7] [nM] | EC50 [8] [nM] | EC50 [9] [nM] | EC50 [10] [nM] | EC50 [11] [nM] | Structure (SMILES) |
| --- | --- | --- | --- | --- | --- | --- | --- | --- | --- | --- | --- |
| 6.71 | 8.30 | 6.67 | 5.63 | 5.50 | 22500 | 97 | 88 | 11 | 7 | > 10000 | O=C(O)CCC/C=C\C[C@@H]1[C@@H](COCc2cccc(C(F)(F)F)c2)[C@H](O)C[C@H]1Cl |
| 6.59 | 9.30 | 8.52 | 5.18 | 6.22 |  |  |  | 2520 |  | > 10000 | CCc1cccc(COC[C@@H]2[C@@H](CCCc3ccc(C(=O)O)s3)[C@H](Cl)C[C@H]2O)c1 |
| 5.00 | 9.00 | 9.22 | 5.00 | 6.00 |  |  | 8060 | 7110 |  |  | O=C(O)c1ccc(CCC[C@@H]2[C@@H](CCCc3cc(Cl)cc(Cl)c3)[C@H](O)C[C@H]2Cl)s1 |
| 4.86 | 9.05 | 8.40 | < 5.00 | 5.73 |  |  |  |  |  |  | CCc1cccc(CCC[C@@H]2[C@@H](CCCc3ccc(C(=O)O)s3)[C@H](Cl)C[C@H]2O)c1 |
| 5.60 | 9.52 | 9.30 |  | 6.13 |  | 4260 |  |  |  |  | O=C(O)c1ccc(CCC[C@@H]2[C@@H](CCCc3cccc(C(F)(F)F)c3)[C@H](O)C[C@H]2Cl)s1 |
| 5.49 | 8.77 | 7.96 |  |  |  |  |  |  |  |  | O=C(O)c1ccc(CCC[C@@H]2[C@@H](C=C=Cc3cccc(C(F)(F)F)c3)[C@H](O)C[C@H]2Cl)s1 |
|  | 9.22 | 8.52 | 5.30 | 5.67 |  |  |  |  |  | 6780 | O=C(O)c1ccc(CCC[C@@H]2[C@@H](CCCc3ccccc3)[C@H](O)C[C@H]2Cl)s1 |
|  | 8.77 | 8.22 | 4.96 | 6.15 |  |  |  |  |  | 10200 | O=C(O)c1ccc(CCC[C@@H]2[C@@H](C=C=Cc3ccccc3)[C@H](O)C[C@H]2Cl)s1 |
|  | 8.44 | 7.62 |  |  |  |  |  |  |  | 5620 | CN(Cc1ccccc1)C[C@@H]1[C@@H](CCCc2ccc(C(=O)O)s2)[C@H](Cl)C[C@H]1O |
|  | 8.22 | 6.84 |  |  |  |  |  |  |  |  | O=C(O)c1ccc(CCC[C@@H]2[C@@H](CNCc3ccccc3)[C@H](O)C[C@H]2Cl)s1 |
